Measurements published in ChEMBL document CHEMBL1201862, “PubChem BioAssay data set” (2004).
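Results reflect a 48-hour exposure of cells in 96-well plates to compound at five concentrations. Here, GI50 denotes the concentration required for 50% inhibition of growth.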 Calls of active or inactive are those of the source. Rule as the data show it: active = GI50 up to about 1.1 µM and inactive = higher.

Columns and labels:
Experiment in all cases: growth of human tumour cells (NCI), 48 h
HT-29 = test system: HT-29
TK-10 = test system: TK-10
KM12 = test system: KM12
OVCAR-8 = test system: OVCAR-8
SN12C = test system: SN12C
HCT-15 = test system: HCT-15
MCF7 = test system: MCF7
HL-60 = test system: HL-60
OVCAR-3 = test system: OVCAR-3
SF-539 = test system: SF-539
UACC-257 = test system: UACC-257
SNB-19 = test system: SNB-19
K562 = test system: K562
SW-620 = test system: SW-620
CCRF-CEM = test system: CCRF-CEM
HCT-116 = test system: HCT-116
A549 = test system: A549
A498 = test system: A498
EKVX = test system: EKVX
NCI-H226 = test system: NCI-H226
MDA-N = test system: MDA-N
SK-MEL-28 = test system: SK-MEL-28
OVCAR-4 = test system: OVCAR-4
RPMI-8226 = test system: RPMI-8226
SK-OV-3 = test system: SK-OV-3
OVCAR-5 = test system: OVCAR-5
SF-268 = test system: SF-268
ACHN = test system: ACHN
M14 = test system: M14
HOP-62 = test system: HOP-62
RXF 393 = test system: RXF 393
MOLT-4 = test system: MOLT-4
IGROV-1 = test system: IGROV-1
SK-MEL-5 = test system: SK-MEL-5
MDA-MB-231 = test system: MDA-MB-231
COLO 205 = test system: COLO 205
786-0 = test system: 786-0
SR = test system: SR
SNB-75 = test system: SNB-75
NCI-H460 = test system: NCI-H460
HOP-92 = test system: HOP-92
NCI-H23 = test system: NCI-H23
PC-3 = test system: PC-3
CAKI-1 = test system: CAKI-1
Malme-3M = test system: Malme-3M
NCI/ADR-RES = test system: NCI/ADR-RES
BT-549 = test system: BT-549
HCC 2998 = test system: HCC 2998
LOX IMVI = test system: LOX IMVI
SF-295 = test system: SF-295
UACC-62 = test system: UACC-62
DU-145 = test system: DU-145
NCI-H522 = test system: NCI-H522
U-251 = test system: U-251
Hs-578T = test system: Hs-578T
SK-MEL-2 = test system: SK-MEL-2
MDA-MB-435 = test system: MDA-MB-435
T47D = test system: T47D

CCC(CCCC[C@H]1CC[C@@H]2CC(=O)C[C@H]12)OC (stereo partly specified)
GI50 (HT-29): > 100 µM (inactive)
GI50 (TK-10): > 100 µM (inactive)
GI50 (KM12): > 100 µM (inactive)
GI50 (OVCAR-8): > 100 µM (inactive)
GI50 (SN12C): > 100 µM (inactive)
GI50 (HCT-15): > 100 µM
GI50 (MCF7): > 100 µM (inactive)
GI50 (HL-60): 39.5 µM (inactive)
GI50 (OVCAR-3): > 100 µM (inactive)
GI50 (SF-539): > 100 µM (inactive)
GI50 (UACC-257): 46.5 µM (inactive)
GI50 (SNB-19): > 100 µM (inactive)
GI50 (K562): 25.6 µM (inactive)
GI50 (SW-620): > 100 µM (inactive)
GI50 (CCRF-CEM): > 100 µM (inactive)
GI50 (HCT-116): 76 µM (inactive)
GI50 (A549): > 100 µM (inactive)
GI50 (A498): > 100 µM (inactive)
GI50 (EKVX): 59 µM (inactive)
GI50 (NCI-H226): > 100 µM (inactive)
GI50 (MDA-N): > 100 µM (inactive)
GI50 (SK-MEL-28): > 100 µM (inactive)
GI50 (OVCAR-4): > 100 µM (inactive)
GI50 (RPMI-8226): > 100 µM (inactive)
GI50 (SK-OV-3): > 100 µM (inactive)
GI50 (OVCAR-5): > 100 µM (inactive)
GI50 (SF-268): > 100 µM (inactive)
GI50 (ACHN): > 100 µM (inactive)
GI50 (M14): > 100 µM (inactive)
GI50 (HOP-62): > 100 µM (inactive)
GI50 (RXF 393): > 100 µM (inactive)
GI50 (MOLT-4): > 100 µM (inactive)
GI50 (IGROV-1): > 100 µM (inactive)
GI50 (SK-MEL-5): 31.8 µM (inactive)
GI50 (MDA-MB-231): > 100 µM (inactive)
GI50 (COLO 205): > 100 µM (inactive)
GI50 (786-0): > 100 µM (inactive)
GI50 (SR): 51.8 µM (inactive)
GI50 (SNB-75): 59 µM (inactive)
GI50 (NCI-H460): > 100 µM (inactive)
GI50 (HOP-92): > 100 µM (inactive)
GI50 (NCI-H23): 35.2 µM (inactive)
GI50 (PC-3): > 100 µM (inactive)
GI50 (CAKI-1): > 100 µM (inactive)
GI50 (Malme-3M): > 100 µM (inactive)
GI50 (NCI/ADR-RES): 66.5 µM (inactive)
GI50 (BT-549): 50.7 µM (inactive)
GI50 (HCC 2998): > 100 µM (inactive)
GI50 (LOX IMVI): > 100 µM (inactive)
GI50 (SF-295): > 100 µM (inactive)
GI50 (UACC-62): 76 µM (inactive)
GI50 (DU-145): > 100 µM (inactive)
GI50 (NCI-H522): > 100 µM (inactive)
GI50 (U-251): > 100 µM (inactive)
GI50 (Hs-578T): > 100 µM (inactive)
GI50 (SK-MEL-2): > 100 µM (inactive)
GI50 (MDA-MB-435): > 100 µM (inactive)
GI50 (T47D): > 100 µM (inactive)

CCCCC[C@@H]1OCO[C@@]2(C)/C=C(C)\C=C/C(=O)O[C@H]([C@@H](C)[C@@H](O)[C@H](C)[C@@]3(O)C[C@@H](O[C@H]4C[C@@H](O)[C@H](O)[C@@H](C)O4)[C@H](C)[C@@H](C)O3)[C@@H](OC)/C=C\C=C(\C)C[C@@H]1[C@@H]2O (stereo in doubt)
GI50 (HT-29): < 0.005 µM (active)
GI50 (TK-10): 0.119 µM (active)
GI50 (KM12): < 0.005 µM (active)
GI50 (OVCAR-8): < 0.005 µM (active)
GI50 (SN12C): 0.0231 µM (active)
GI50 (HCT-15): 0.5 µM
GI50 (MCF7): < 0.005 µM (active)
GI50 (HL-60): < 0.005 µM (active)
GI50 (OVCAR-3): < 0.005 µM (active)
GI50 (SF-539): < 0.005 µM (active)
GI50 (UACC-257): < 0.005 µM (active)
GI50 (SNB-19): 0.0995 µM (active)
GI50 (K562): < 0.005 µM (active)
GI50 (SW-620): < 0.005 µM (active)
GI50 (CCRF-CEM): < 0.005 µM (active)
GI50 (HCT-116): < 0.005 µM (active)
GI50 (A549): < 0.005 µM (active)
GI50 (A498): < 0.005 µM (active)
GI50 (EKVX): < 0.005 µM (active)
GI50 (NCI-H226): < 0.005 µM (active)
GI50 (MDA-N): < 0.005 µM (active)
GI50 (SK-MEL-28): 0.0724 µM (active)
GI50 (OVCAR-4): < 0.005 µM (active)
GI50 (RPMI-8226): < 0.005 µM (active)
GI50 (SK-OV-3): 1.35 µM (inactive)
GI50 (OVCAR-5): < 0.005 µM (active)
GI50 (SF-268): < 0.005 µM (active)
GI50 (ACHN): < 0.005 µM (active)
GI50 (M14): < 0.005 µM (active)
GI50 (HOP-62): 0.0573 µM (active)
GI50 (RXF 393): < 0.005 µM (active)
GI50 (MOLT-4): < 0.005 µM (active)
GI50 (IGROV-1): < 0.005 µM (active)
GI50 (SK-MEL-5): < 0.005 µM (active)
GI50 (MDA-MB-231): 0.0239 µM (active)
GI50 (COLO 205): < 0.005 µM (active)
GI50 (786-0): < 0.005 µM (active)
GI50 (SR): < 0.005 µM (active)
GI50 (SNB-75): < 0.005 µM (active)
GI50 (NCI-H460): < 0.005 µM (active)
GI50 (HOP-92): < 0.005 µM (active)
GI50 (NCI-H23): 0.5 µM (active)
GI50 (PC-3): < 0.005 µM (active)
GI50 (CAKI-1): < 0.005 µM (active)
GI50 (Malme-3M): < 0.005 µM (active)
GI50 (NCI/ADR-RES): 0.5 µM (active)
GI50 (BT-549): 0.5 µM (active)
GI50 (HCC 2998): < 0.005 µM (active)
GI50 (LOX IMVI): < 0.005 µM (active)
GI50 (SF-295): < 0.005 µM (active)
GI50 (UACC-62): < 0.005 µM (active)
GI50 (DU-145): < 0.005 µM (active)
GI50 (NCI-H522): < 0.005 µM (active)
GI50 (U-251): < 0.005 µM (active)
GI50 (Hs-578T): 1.2 µM (inactive)
GI50 (SK-MEL-2): < 0.005 µM (active)
GI50 (MDA-MB-435): < 0.005 µM (active)
GI50 (T47D): < 0.005 µM (active)
